According to patent US20210002725A1, “METHODS FOR THE DIAGNOSIS OF METABOLIC DISORDERS USING EPIMETABOLIC SHIFTERS, MULTIDIMENSIONAL INTRACELLULAR MOLECULES, OR ENVIRONMENTAL INFLUENCES” (Berg LLC, priority 2009, published 2021):

What was measured:
[1] = tested on: Bcl-2; test: Western blot of Bcl-2 in Skmel-28 melanoma cells treated with CoQ10 building block components; format: cell-based
Method: (§1) Skmel-28 melanoma cells were cultured in DMEM/F12 supplemented with 5% Fetal Bovine Serum (FBS) and 1× final concentration of Antibiotics. The cells were grown to 85% confluency and treated with building block components for 3, 6, 12 and 24 hours. The cells were then pelleted and a Western blot analysis was performed.
(§2) In the Western Blot Analysis, the cells were pelleted in cold PBS, lysed, and the protein levels were quantified using a BCA protein assay. The whole cell lysate was loaded in a 4% loading 12% running Tris-HCl gel. The proteins were then transferred to a nitrocellulose paper then blocked with a 5% milk Tris-buffered solution for 1 hour. The proteins were then exposed to primary antibodies (Bcl-2 and Caspase-3) overnight. The nitrocellulose paper was then exposed to Pico Chemilluminescent for 5 min and the protein expression was recorded. After exposure, actin was quantified using the same method. Using ImageJ the levels of protein expression were quantified. A t-Test was used to analyze for statistical significance.

[2] = tested on: Caspase-3; test: Western blot of Caspase-3 in Skmel-28 melanoma cells treated with CoQ10 building block components; format: cell-based; details: for Caspase-3 expression / apoptotic effect: all concentrations and time points tested
Method: as §1, §2

[3] = tested on: HDFa cells; test: SeaHorse XF analyzer OCR and ECAR; format: cell-based, human
Excerpt: Environmental influencers (e.g., MIMs or Epi-shifters) may also be identified by changes in cellular energetics. One example of the measurement of cellular energetics are the real-time measures of the consumption of molecular oxygen and/or the change in pH of the media of a cell culture. For example, the ability of a potential epi-shifter to modulate the metabolic state of a cell may be analyzed using, for example, the XF24 Analyzer (Seahorse, Inc.). This technology allows for real time detection of oxygen and pH changes in a monolayer of cells in order to evaluate the bioenergetics of a cell microenvironment. The XF24 Analyzer measures and compares the rates of oxygen consumption (OCR), which is a measure of aerobic metabolism, and extracellular acidification (ECAR), which is a measure of glycolysis, both key indicators of cellular energetics.
(SeaHorse Biosciences Inc, North Billerica, Mass.).
In this experiment, the OCR and extracellular acidification rate (ECAR) in normal cells lines were obtained in the presence and absence of CoQ10 to determine baseline values. It was observed that in its native nutrient environment, the basal OCR rates in normal cells lines are different, and are usually a function of the physiological roles of the cells in the body.
For example, one set of experiments were conducted using the non-cancerous cell line HDFa, which is a human adult dermal fibroblast cell line. Fibroblasts are cells that primarily synthesize and secrete extracellular matrix (ECM) components and collagen that form the structural framework (stroma) for tissues. In addition, fibroblasts are known to serve as tissue ambassadors of numerous functions such as wound healing and localized immnomodulation. Under normal physiological conditions, energy requirements in normal fibroblasts are met using a combination of glycolysis and oxidative phosphorylation—the glycolysis providing the necessary nutrients for synthesis of ECM.
FIGS. 29 and 30 describe the OCR in HDFa and HASMC cells grown in physiologically normal glucose (about 4.6 mM) and high glucose (hyperglycemic) conditions.

[4] = tested on: tumor cells; details: cited from earlier work
[5] = tested on: Melanoma cells; test: Cell proliferation assay (live cell count) of building block combinations; format: cell-based
Method: Cell Proliferation Assay of the Combination of 4-Hydroxy-Benzoate with Benzoquinone: This set of experiments used a cell proliferation assay to assess the effect of combining different building block molecules on cell proliferation.
The first study examined the effect of combining 4-Hydroxy-Benzoate with Benzoquinone. Cells were incubated for 48 hours, after which a cell count was performed for the live cells. Each test group was compared to the control, and each combination groups were compared to Benzoquinone control. The compounds were statistically analyzed for the addition of Benzoquinone.
Additional studies were performed testing additional molar ratios. For the first test 4-Hydroxybenzoic were tested at concentrations of 500 nM, 1 μM, and 50 μM. These concentrations were tested in combination with 2,3-Dimethoxy-5-methyl-p-benzoquinone (Benzo). The concentration of Benzo tested were 25 μM, 50 μM, and 100 μM. Melanoma cells were grown to 80% confluency and seeded in 6 well plates at a concentration of 40K cells per well. The cells were treated with CoQ10, 4-Hydroxybenzoate, Benzo, and a combination of 4-Hydroxybenzoate/Benzo.
A T-test was performed with p<0.05 as statistically significant.

[6] = tested on: neonatal fibroblast cells; test: Cell proliferation assay (coulter counter); format: cell-based; details: HB 500 nM, 5 μM, 25 μM alone and with benzoquinone 25, 50, 100 μM; 24 hours
Method: A cell proliferation assay was also performed on neonatal fibroblast cells. The concentrations of HB tested were 500 nM, 5 μM, and 25 μM. HB was also tested in combination with benzoquinone at a concentrations of 25 μM, 50 μM, and 100 μM. […] The cells were trypsinized and quantified using a coulter counter.

[7] = 24 hours, concentration not given
[8] = all concentrations and time points tested

## NC(Cc1ccccc1)C(=O)O (racemic) [DL-Phenylalanine]
[1]; [7]
  Bcl-2 expression: statistically significant decrease
[2]; 3 hours, concentration not given
  Caspase-3 expression: statistically significant increase

## Cc1ncc(CO)c(CO)c1O [Pyridoxine]
[1]; [7]
  Bcl-2 expression: significant reduction

## CC(=O)NCC(=O)O [Acetylglycine]
[1]; 5 μM, 12 hours
  Bcl-2 expression: significant decrease
[1]; 25 μM, 12 hours
  Bcl-2 expression: significant decrease
[1]; 100 μM, 24 hours
  Bcl-2 expression: significant decrease

## C[C@@](O)(CCO)CC(=O)O [Mevalonic Acid]
[1]; [8]
  Bcl-2 expression: no significant reduction
[2]
  Caspase-3 expression / apoptotic effect: no significant reduction in Bcl-2 expression or an increase in Caspase-3 expression

## COC1=C(OC)C(=O)C(C/C=C(\C)CC/C=C(\C)CC/C=C(\C)CC/C=C(\C)CC/C=C(\C)CC/C=C(\C)CC/C=C(\C)CC/C=C(\C)CC/C=C(\C)CCC=C(C)C)=C(C)C1=O [compound 31510]
[3]; Hypoxia (5.5 mM), 50 μM
  ECAR: 5 mpH/min
[3]; Hypoxia (5.5 mM), 100 μM
  ECAR: 5 mpH/min
[3]; Hypoxia (22 mM), 50 μM
  ECAR: 6 mpH/min
[3]; Hypoxia (22 mM), 100 μM
  ECAR: 8 mpH/min
[3]; Normoxia (5.5 mM), 50 μM
  ECAR: 6 mpH/min
[3]; Normoxia (5.5 mM), 100 μM
  ECAR: 6 mpH/min
[3]; Normoxia (22 mM), 50 μM
  ECAR: 5 mpH/min
[3]; Normoxia (22 mM), 100 μM
  ECAR: 5 mpH/min

## NC(Cc1ccc(O)cc1)C(=O)O (racemic) [DL-Tyrosine]
[1]; 1 μM, 12 hours
  Bcl-2 expression: statistical decrease
[1]; 5 μM, 24 hours
  Bcl-2 expression: statistical decrease
[1]; 15 μM, 12 hours
  Bcl-2 expression: statistical decrease
[2]; 5 μM, 12 hours
  Caspase-3 expression: increase
[2]; 15 μM, 12 hours
  Caspase-3 expression: increase

## N[C@@H](Cc1ccc(O)cc1)C(=O)O [L-Tyrosine]
[1]; 500 μM, 24 hours
  Bcl-2 expression: statistically significant decrease

## O=C(O)C(=O)Cc1ccc(O)cc1 [4-Hydroxy-phenylpyruvate]
[1]; 5 μM, 24 hours
  Bcl-2 expression: significant reduction
[1]; 15 μM, 24 hours
  Bcl-2 expression: significant reduction
[2]; 5 μM, 12 hours
  Caspase-3 expression: significant increase
[2]; 15 μM, 12 hours
  Caspase-3 expression: significant increase

## CC(=O)SCCNC(=O)CCNC(=O)[C@H](O)C(C)(C)COP(=O)(O)OP(=O)(O)OC[C@H]1O[C@@H](n2cnc3c(N)ncnc32)[C@H](O)[C@@H]1OP(=O)(O)O [Acetyl-CoA]
[1]; [8]
  Bcl-2 expression: no significant observed reduction
[2]
  Caspase-3 expression / apoptotic effect: no significant observed reduction in Bcl-2 or increase in Caspase-3 expression

## N[C@@H](Cc1ccccc1)C(=O)O [L-Phenylalanine]
[1]; 100 μM, 3 hours
  Bcl-2 expression: statistically significant decrease
[1]; 100 μM, 12 hours
  Bcl-2 expression: statistically significant decrease

## COc1cc(C(O)C(=O)O)ccc1O (centres unmarked) [3-methoxy-4-hydroxymandelate]
[1]; [8]
  Bcl-2 expression: downward trend
[2]
  Caspase-3 expression / apoptotic effect: no statistically significant apoptotic effect

## N[C@H](Cc1ccc(O)cc1)C(=O)O [D-Tyrosine]
[1]; 5 μM, 12 hours
  Bcl-2 expression: reduction
[1]; 5 μM, 24 hours
  Bcl-2 expression: reduction
[1]; 15 μM, 12 hours
  Bcl-2 expression: reduction
[1]; 15 μM, 24 hours
  Bcl-2 expression: reduction
[2]; 1 μM, 12 hours
  Caspase-3 expression: increase
[2]; 1 μM, 24 hours
  Caspase-3 expression: increase
[2]; 5 μM, 3 hours
  Caspase-3 expression: significantly increased
[2]; 5 μM, 12 hours
  Caspase-3 expression: significantly increased
[2]; 5 μM, 24 hours
  Caspase-3 expression: significantly increased

## C=C1/C(=C\C=C2/CCC[C@]3(C)[C@@H]([C@H](C)CCCC(C)(C)O)CC[C@@H]23)C[C@@H](O)C[C@@H]1O [Vitamin D3, 1α, 25-dihydroxyvitamin D3]
[4]; Deeb et al. 2007
  expression of anti-apoptotic proteins BCL2 and BCL-XL: repressing the expression
  expression of pro-apoptotic proteins (BAX, BAK, BAD): inducing the expression
  gene transcription of p21WAFI/CIPI: induce gene transcription
[4]; Masuda and Jones 2006
  expression of VEGF: inhibit the expression
  proliferation of tumor-derived endothelial cells: inhibit the proliferation

## COc1cc(C(=O)O)ccc1O [Vanillic acid]
[1]; 500 nM, 24 hours
  Bcl-2 expression: significantly reduce
[1]; 5 μM, 24 hours
  Bcl-2 expression: significantly reduce

## N[C@H](Cc1ccccc1)C(=O)O [D-Phenylalanine]
[1]; 5 μM, 3 hours
  Bcl-2 expression: significant reduction
[1]; 5 μM, 6 hours
  Bcl-2 expression: significant reduction
[1]; 25 μM, 3 hours
  Bcl-2 expression: significant reduction
[1]; 25 μM, 6 hours
  Bcl-2 expression: significant reduction
[1]; 100 μM, 6 hours
  Bcl-2 expression: significant reduction
[2]; 5 μM, 6 hours
  Caspase-3 expression: significant increase
[2]; 100 μM, 6 hours
  Caspase-3 expression: significant increase

## CC(C)(CO)[C@@H](O)C(=O)NCCCO [Panthenol]
[1]; 25 μM, time not stated
  Bcl-2 expression: significant reduction

## O=C(O)c1ccc(O)cc1 [4-Hydroxybenzoate]
[5]; 48 hours incubation
  cell number vs control: significant decrease in cell number
[5]; additional molar ratios, HB 500 nM, 1 μM, 50 μM
  cell proliferation vs control: significant decrease in cell proliferation
[6]
  reduction in fibroblast cells: did not show a significant reduction
